We go through one molecule from patent US10905683B2, “Compositions and uses of amidine derivatives” (BIOCRYST PHARMACEUTICALS, INC., priority 2014, dated 2021).

Data set [1] in a line: octanol-PBS pH 7.4 partition coefficient (log D7.4) assay. The class given is physicochemical. Conditions: octanol/0.01 M phosphate buffer pH 7.4, 24 hours, LC/MS/MS. The procedure: A 1 μL volume of a 1 mM stock solution of the compound in dimethyl sulfoxide (DMSO) was added to 500 μL 0.01 M phosphate buffer pH 7.4 (saturated with octanol) and 500 μL of octanol (saturated with 0.01 M phosphate buffer). […] Samples were prepared in triplicate.

A short description of data set [2]: Concentration achieved in formulations and excipient mixtures. The class given is physicochemical. The procedure: In initial formulation work for the amidine compounds described herein, in particular 3-[2-(4-carbamimidoyl-phenylcarbamoyl)-5-methoxy-4-vinyl-phenyl]-6-(cyclopropylmethyl-carbamoyl)-pyridine-2-carboxylic acid, extensive studies were carried out to identify a suitable mixture of excipients to produce the oral formulation described herein.
Specifically, a variety of approaches were taken to develop suitable oral formulations of 3-[2-(4-carbamimidoyl-phenylcarbamyl)-5-methoxy-4-vinyl-phenyl]-6-(cyclopropylmethyl-carbamoyl)-pyridine-2-carboxylic acid. The approaches taken included use of a variety of hydrophilic polymers, including α-cyclodextrin and a polyanionic 3-cyclodextrin derivative with a sodium sulfonate salt separated from the lipophilic cavity by a butyl ether or sulfobutylether spacer group in combination with a variety of co-solvents. In addition, the compound was evaluated in formulations created by a number of different technologies (such as dry blends, nanosuspensions, solid dispersion and emulsions) using a variety of approaches.

Broadly, the logD is lipophilicity at a set pH, counting ionised and neutral species. High values mean higher lipophilicity, low ones lower lipophilicity. For `C=Cc1cc(C(=O)Nc2ccc(C(=N)N)cc2)c(-c2ccc(C(=O)NCC3CC3)nc2C(=O)O)cc1OC` [Example 1, 3-[2-(4-carbamimidoyl-phenylcarbamoyl)-5-methoxy-4-vinyl-phenyl]-6-(cyclopropylmethyl-carbamoyl)-pyridine-2-carboxylic acid], the logD at 24 h in data set [1] was determined as 1.9. The concentration dissolved result is recorded as “up to 140 mg/ml” in data set [2] (1,2-propanediol, especially as part of a mixture of polar protic solvents) and “up to 140 mg/ml” in data set [2] (polyethylene glycol 600, especially as part of a mixture of polar protic solvents). Moreover, the concentration in formulation entry in data set [2] (initial formulations: cyclodextrins, co-solvents, dry blends, nanosuspensions, solid dispersion, emulsions) is given as “less than 10.5 mg/ml”; in data set [2] (novel excipient mixtures of the invention) it was “at least 100 mg/ml”.
